For assay [1], the target named is Mitogen-activated protein kinase kinase kinase kinase 4 (Homo sapiens, UniProt O95819). Nature of the assay: Selectivity interaction (Upstate Kinase Profiler service (Millipore)) EUB0000056c MAP4K4. The settings on record: at 1 µM.
The target in assay [2] is Serine/threonine-protein kinase Chk2 (Homo sapiens) (UniProt O96017). The settings on record: at 10 µM.
For assay [3], the target named is Tyrosine-protein kinase FRK (Homo sapiens) (UniProt P42685). Nature of the assay: Selectivity interaction (Ambit KINOMEscan and KiNATiv profiling in Jurkat cells) EUB0000090b FRK. The format is cell-based. The settings on record: at 1 µM.
For assay [4], the target named is cAMP-dependent protein kinase catalytic subunit beta (Homo sapiens) (UniProt P22694). Description: Selectivity interaction (KinomeScan (DiscoverX)) EUB0001049a PRKACB. The settings on record: at 1 µM.
Assay [5] concerns the target Tyrosine-protein kinase Yes (Homo sapiens) (UniProt P07947). Nature of the assay: Selectivity interaction (KinomeScan (DiscoverX)) EUB0001049a YES1. The settings on record: at 1 µM.
The target in assay [6] is T1, Ephrin type-A receptor 8 (Homo sapiens) (UniProt P29322).
T1 sequence (whole entry): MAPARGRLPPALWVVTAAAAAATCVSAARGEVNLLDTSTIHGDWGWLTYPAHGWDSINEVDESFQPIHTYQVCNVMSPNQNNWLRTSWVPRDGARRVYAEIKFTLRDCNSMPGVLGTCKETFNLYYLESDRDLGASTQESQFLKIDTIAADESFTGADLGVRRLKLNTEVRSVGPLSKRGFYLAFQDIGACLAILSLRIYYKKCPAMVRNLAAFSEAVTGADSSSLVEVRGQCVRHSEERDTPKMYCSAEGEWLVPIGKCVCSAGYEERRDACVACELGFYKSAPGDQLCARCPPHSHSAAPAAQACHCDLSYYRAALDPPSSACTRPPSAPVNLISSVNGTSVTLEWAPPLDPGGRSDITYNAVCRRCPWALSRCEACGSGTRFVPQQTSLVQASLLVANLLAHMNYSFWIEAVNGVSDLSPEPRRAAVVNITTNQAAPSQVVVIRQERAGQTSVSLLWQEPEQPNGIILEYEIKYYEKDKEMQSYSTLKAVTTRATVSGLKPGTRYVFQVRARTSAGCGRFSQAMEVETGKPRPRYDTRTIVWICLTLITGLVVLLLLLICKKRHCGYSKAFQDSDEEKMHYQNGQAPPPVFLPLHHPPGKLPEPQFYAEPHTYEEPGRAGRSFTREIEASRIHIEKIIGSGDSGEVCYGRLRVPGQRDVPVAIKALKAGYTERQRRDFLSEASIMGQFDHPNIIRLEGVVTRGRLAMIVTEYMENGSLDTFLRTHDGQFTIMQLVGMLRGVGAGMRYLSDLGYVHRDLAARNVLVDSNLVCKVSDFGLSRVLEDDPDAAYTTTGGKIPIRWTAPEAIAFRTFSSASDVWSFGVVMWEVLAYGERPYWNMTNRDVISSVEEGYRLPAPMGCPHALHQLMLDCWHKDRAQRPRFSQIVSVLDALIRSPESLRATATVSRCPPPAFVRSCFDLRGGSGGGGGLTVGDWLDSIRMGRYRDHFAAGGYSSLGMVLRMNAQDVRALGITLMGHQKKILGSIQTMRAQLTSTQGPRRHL
Description: Selectivity interaction (KinomeScan (DiscoverX)) EUB0000655a EPHA8. The settings on record: at 10 µM.

Assay [7] has as its target Mitogen-activated protein kinase kinase kinase 4 (Homo sapiens) (UniProt Q9Y6R4). Description: Selectivity interaction (KinomeScan (DiscoverX)) EUB0000655a MAP3K4. The settings on record: at 10 µM.
The target of assay [8] is Dual specificity tyrosine-phosphorylation-regulated kinase 1A (Homo sapiens, UniProt Q13627). Description: Selectivity interaction (KinomeScan (DiscoverX)) EUB0001550a DYRK1A. The settings on record: at 1 µM.
Assay [9] has as its target Death-associated protein kinase 1 (Homo sapiens, UniProt P53355). Description: Selectivity interaction (KinomeScan (DiscoverX)) EUB0000045b DAPK1.
Assay [10] deals with Serine/threonine-protein kinase tousled-like 2 (Homo sapiens) (UniProt Q86UE8). Description: Selectivity interaction (KinomeScan (DiscoverX)) EUB0000045b TLK2.
Assay [11] deals with Protein kinase C theta type (Homo sapiens, UniProt Q04759). Nature of the assay: Selectivity interaction (KinomeScan (DiscoverX)) EUB0000666a PRKCQ. The settings on record: at 10 µM.
The target in assay [12] is Calcium/calmodulin-dependent protein kinase type 1D (Homo sapiens) (UniProt Q8IU85). Nature of the assay: Selectivity interaction (ActivX KiNativ screen (kinase selectivity in THP-1 cell lysates)) EUB0000639a CAMK1D. Format: subcellular. Conditions: lysate, at 0.2 µM.
For assay [13], the target named is RAF proto-oncogene serine/threonine-protein kinase (Homo sapiens) (UniProt P04049). Description: Selectivity interaction (Kinase panel (Invitrogen)) EUB0000639a RAF1. Conditions: at 200 nM.
Assay [14] addresses T2, Ephrin type-B receptor 2 (Homo sapiens) (UniProt P29323).
T2 sequence (whole entry): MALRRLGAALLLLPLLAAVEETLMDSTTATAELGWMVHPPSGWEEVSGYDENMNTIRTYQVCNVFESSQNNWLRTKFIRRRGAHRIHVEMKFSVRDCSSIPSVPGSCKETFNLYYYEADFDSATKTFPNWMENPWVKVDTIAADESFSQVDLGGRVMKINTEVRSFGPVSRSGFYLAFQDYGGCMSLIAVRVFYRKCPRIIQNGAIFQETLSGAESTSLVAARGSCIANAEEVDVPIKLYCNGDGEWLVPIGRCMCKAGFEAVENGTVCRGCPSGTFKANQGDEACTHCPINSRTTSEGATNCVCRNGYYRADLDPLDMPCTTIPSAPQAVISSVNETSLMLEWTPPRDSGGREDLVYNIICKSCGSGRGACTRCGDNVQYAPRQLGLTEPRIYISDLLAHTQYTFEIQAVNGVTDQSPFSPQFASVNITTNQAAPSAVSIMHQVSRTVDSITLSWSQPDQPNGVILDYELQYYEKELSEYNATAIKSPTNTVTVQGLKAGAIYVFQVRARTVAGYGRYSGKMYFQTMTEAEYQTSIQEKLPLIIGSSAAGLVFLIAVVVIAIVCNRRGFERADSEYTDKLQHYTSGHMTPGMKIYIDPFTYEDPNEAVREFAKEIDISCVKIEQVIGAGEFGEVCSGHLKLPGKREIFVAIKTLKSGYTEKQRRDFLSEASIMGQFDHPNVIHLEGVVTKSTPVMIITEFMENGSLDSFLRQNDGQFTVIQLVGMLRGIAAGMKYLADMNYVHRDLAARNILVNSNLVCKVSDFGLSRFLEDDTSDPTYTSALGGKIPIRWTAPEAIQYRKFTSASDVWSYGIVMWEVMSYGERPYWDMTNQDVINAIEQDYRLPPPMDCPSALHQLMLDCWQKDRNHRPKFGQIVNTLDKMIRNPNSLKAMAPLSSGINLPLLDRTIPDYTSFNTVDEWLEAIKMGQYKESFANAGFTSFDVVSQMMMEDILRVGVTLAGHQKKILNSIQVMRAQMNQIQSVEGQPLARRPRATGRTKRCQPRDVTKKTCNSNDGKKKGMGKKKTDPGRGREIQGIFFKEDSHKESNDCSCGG
Description: Selectivity interaction (KinomeScan (DiscoverX)) EUB0000618a EPHB2. Conditions: at 10 µM.

Chain of Serine/threonine-protein kinase tousled-like 2 (Homo sapiens) (Q86UE8 whole entry, looked up): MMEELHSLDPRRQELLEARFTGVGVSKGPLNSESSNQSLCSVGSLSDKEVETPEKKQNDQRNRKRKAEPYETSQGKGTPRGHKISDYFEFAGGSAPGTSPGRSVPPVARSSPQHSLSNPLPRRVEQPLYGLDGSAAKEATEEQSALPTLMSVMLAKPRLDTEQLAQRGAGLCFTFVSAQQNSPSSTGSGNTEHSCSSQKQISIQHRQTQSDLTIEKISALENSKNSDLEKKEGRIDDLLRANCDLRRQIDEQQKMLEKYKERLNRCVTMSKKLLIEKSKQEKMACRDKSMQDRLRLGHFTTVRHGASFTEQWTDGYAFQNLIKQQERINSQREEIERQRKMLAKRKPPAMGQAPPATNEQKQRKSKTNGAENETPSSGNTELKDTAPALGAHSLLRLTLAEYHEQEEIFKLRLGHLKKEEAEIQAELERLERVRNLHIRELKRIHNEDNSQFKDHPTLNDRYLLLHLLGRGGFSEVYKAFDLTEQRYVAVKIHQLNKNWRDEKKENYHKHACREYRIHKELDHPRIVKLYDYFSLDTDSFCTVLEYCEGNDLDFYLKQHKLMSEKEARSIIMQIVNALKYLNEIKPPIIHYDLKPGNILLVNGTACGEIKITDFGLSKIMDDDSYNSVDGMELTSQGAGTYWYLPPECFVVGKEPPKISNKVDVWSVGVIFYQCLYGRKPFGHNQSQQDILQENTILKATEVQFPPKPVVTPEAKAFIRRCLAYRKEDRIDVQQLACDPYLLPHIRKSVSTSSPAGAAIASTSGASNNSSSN
Chain of Death-associated protein kinase 1 (P53355 whole entry, looked up): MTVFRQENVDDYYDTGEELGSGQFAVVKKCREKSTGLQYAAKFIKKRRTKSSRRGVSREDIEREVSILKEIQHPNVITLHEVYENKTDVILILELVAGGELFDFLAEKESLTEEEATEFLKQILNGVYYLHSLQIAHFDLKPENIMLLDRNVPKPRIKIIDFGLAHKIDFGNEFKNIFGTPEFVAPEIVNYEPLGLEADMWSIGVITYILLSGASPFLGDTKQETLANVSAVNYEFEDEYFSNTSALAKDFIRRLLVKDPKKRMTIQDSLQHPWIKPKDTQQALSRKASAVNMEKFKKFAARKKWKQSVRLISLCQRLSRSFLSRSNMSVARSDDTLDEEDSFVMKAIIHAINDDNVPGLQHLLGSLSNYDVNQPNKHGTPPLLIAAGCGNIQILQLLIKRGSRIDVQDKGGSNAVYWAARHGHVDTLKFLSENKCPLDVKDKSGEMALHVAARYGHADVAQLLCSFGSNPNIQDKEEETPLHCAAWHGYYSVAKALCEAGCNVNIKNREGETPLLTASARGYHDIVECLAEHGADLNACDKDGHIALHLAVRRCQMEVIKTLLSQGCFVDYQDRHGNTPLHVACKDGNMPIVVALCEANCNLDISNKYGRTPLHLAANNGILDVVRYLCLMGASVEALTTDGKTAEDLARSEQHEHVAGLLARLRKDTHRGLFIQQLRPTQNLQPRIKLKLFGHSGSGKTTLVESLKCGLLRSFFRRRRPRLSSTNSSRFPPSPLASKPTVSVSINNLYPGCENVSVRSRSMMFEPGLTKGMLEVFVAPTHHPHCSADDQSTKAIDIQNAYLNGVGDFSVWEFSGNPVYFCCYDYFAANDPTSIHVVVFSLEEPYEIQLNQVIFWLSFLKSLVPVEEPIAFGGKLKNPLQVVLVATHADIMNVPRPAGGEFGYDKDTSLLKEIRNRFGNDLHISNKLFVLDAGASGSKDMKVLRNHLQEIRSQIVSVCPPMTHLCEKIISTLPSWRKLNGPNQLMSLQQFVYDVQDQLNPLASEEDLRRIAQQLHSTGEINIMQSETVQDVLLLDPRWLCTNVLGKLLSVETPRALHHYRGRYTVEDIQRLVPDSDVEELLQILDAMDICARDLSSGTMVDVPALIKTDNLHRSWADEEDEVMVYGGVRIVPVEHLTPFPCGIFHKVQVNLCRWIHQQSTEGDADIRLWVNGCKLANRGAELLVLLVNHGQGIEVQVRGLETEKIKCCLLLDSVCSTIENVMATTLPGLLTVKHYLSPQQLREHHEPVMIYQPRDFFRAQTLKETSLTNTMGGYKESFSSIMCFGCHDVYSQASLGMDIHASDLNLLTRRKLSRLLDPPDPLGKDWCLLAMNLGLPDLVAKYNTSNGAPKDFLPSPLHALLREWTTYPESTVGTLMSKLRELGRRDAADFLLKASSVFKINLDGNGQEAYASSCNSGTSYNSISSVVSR
Chain of Protein kinase C theta type (Q04759 whole entry, looked up): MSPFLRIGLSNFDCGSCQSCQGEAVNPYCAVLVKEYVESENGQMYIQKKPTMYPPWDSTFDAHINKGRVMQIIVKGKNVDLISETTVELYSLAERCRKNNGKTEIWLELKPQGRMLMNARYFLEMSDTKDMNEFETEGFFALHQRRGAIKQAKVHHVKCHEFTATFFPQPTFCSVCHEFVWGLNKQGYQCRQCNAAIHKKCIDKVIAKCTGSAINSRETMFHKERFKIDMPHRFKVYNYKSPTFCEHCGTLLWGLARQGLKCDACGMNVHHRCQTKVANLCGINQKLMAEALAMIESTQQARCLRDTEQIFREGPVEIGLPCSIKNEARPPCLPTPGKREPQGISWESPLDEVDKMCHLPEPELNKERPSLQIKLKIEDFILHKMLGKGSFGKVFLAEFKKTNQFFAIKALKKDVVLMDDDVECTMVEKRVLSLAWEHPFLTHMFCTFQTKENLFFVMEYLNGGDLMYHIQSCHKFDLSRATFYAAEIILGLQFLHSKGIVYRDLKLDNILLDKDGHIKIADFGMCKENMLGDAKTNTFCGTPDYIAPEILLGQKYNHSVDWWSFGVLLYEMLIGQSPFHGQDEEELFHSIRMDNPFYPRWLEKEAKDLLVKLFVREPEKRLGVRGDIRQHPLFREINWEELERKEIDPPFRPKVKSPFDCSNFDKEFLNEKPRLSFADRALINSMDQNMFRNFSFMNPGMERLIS
Chain of Calcium/calmodulin-dependent protein kinase type 1D (Homo sapiens) (Q8IU85 whole entry, looked up): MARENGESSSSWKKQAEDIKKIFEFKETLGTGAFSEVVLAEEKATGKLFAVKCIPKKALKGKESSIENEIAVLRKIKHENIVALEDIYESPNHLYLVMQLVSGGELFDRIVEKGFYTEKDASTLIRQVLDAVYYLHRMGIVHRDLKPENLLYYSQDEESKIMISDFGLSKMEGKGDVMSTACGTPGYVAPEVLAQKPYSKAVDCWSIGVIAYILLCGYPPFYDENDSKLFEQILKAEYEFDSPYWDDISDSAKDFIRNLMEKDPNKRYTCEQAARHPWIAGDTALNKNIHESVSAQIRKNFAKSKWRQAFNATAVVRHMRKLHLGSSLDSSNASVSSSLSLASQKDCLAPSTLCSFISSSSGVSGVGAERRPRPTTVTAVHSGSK
Chain of Mitogen-activated protein kinase kinase kinase 4 (Homo sapiens) (Q9Y6R4 whole entry): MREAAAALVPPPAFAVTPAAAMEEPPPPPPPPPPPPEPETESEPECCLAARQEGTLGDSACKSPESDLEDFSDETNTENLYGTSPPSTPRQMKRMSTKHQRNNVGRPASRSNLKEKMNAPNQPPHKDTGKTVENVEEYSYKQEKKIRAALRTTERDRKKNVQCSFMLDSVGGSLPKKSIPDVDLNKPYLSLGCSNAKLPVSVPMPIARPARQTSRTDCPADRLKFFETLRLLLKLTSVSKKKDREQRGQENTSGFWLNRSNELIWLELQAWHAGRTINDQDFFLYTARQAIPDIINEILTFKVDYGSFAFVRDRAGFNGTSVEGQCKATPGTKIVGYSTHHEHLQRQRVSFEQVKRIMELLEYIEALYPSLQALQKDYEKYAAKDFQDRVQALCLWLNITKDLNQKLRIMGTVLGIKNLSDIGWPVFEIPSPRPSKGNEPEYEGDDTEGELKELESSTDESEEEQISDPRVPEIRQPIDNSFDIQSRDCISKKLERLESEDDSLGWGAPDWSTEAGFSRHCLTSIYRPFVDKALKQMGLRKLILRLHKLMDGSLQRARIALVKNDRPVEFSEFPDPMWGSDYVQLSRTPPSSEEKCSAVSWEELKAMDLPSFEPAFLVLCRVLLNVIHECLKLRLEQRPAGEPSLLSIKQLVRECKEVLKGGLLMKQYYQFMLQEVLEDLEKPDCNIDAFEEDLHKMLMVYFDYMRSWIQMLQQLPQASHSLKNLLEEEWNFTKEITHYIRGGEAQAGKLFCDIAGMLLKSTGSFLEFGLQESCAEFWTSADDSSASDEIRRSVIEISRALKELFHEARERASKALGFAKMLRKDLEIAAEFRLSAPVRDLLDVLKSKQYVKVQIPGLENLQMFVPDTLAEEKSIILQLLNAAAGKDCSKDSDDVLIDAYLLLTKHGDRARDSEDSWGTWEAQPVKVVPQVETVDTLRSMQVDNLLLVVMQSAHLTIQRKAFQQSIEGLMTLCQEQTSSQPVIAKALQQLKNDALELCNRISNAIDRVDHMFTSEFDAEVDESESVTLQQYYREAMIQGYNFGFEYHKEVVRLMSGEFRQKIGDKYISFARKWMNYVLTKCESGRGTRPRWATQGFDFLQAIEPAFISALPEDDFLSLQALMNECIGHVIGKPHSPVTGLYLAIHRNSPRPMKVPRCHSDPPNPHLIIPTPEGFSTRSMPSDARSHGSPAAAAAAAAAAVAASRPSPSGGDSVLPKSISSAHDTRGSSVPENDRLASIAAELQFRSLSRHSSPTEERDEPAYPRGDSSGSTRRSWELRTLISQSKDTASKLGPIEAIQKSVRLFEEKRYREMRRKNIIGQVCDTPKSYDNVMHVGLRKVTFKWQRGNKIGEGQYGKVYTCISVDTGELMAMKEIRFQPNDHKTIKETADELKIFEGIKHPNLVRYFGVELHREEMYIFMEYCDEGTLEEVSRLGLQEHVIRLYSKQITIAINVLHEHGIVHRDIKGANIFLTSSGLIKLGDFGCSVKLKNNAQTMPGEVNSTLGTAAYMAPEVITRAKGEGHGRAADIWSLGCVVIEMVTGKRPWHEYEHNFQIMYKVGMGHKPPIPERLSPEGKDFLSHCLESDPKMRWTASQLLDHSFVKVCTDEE

In assay [1], `Cc1ccc(-c2ccc3c(ccc4sc5c(c43)NC[C@@H](C)NC5=O)n2)cn1` came in with a % of inhibition of 43%.
In assay [2], `Cc1cc([C@@H](C)Nc2ccccc2C(=O)O)c2nc(N3CCOCC3)cc(=O)n2c1` [AZD-6482] came in with a % of control of 100%.
For `CN(C)C/C=C/C(=O)Nc1ccc(C(=O)N2CCCC(Nc3ncc(Cl)c(-c4c[nH]c5ccccc45)n3)C2)cc1` (stereo unspecified), in assay [3], the % of control was determined as 89%.
As for `COc1cc(Nc2nc(C)cc(-c3cnn4nc(OC)ccc34)n2)cc(C(F)(F)F)c1`, the figures for the % of control in assay [4] and in [5] were 100% and 80%, respectively.
For the molecule `CN(C)CCOc1ccc(-c2nc(-c3ccncc3)c(-c3ccc4c(c3)CC/C4=N\O)[nH]2)cc1`, the results for the % of control in assay [6] and in assay [7] were 100% and 83%, respectively.
The molecule `CN(C)CC#Cc1ccc2[nH]c3c(c2c1)-c1nc(N)ncc1CCC3` showed a % of control in [8] of 9.9%.
As to `C=CC(=O)Nc1cc(-n2c(=O)ccc3cnc4ccc(-c5ccc(NS(C)(=O)=O)cc5)cc4c32)ccc1C`, the % of control in assay [9] (at 1 µM) is 96%; in assay [9] (at 10 µM), 61%; in assay [10] (at 1 µM) it was 100%; in assay [10] (at 10 µM), 100%.
Molecule `O=C(NOC[C@H](O)CO)c1ccc(F)c(F)c1Nc1ccc(I)cc1F` registered a % of control in [11] of 100%.
For the molecule `CC[C@@H]1[C@H](F)C(=O)N[C@@H]1COc1nccc2cc(C(N)=O)c(OC)cc12` [ZIMLOVISERTIB], the % of inhibition worked out at 5.2% in assay [12] and 15.9% in [13].
`O[C@H]1CC[C@H](Nc2ncc3nc(Nc4c(F)cc(F)cc4F)n([C@H]4CCOC4)c3n2)CC1` showed a % of control in assay [14] of 72%.

For the origin of these results see ChEMBL document CHEMBL5465560, “Selectivity Literature for EUbOPEN Chemogenomic Library” (2024).
